Measured values reported in PubChem BioAssay AID248 (DTP/NCI, 2004).
“And” between values parts separate entries of the source, which are not always exact repeats. Identical values can stand only once. Toxic doses and inconclusive results are not listed. Cut-off read from the data, not from the text of the source: active = T/C of 150% or more; inactive = T/C below 125%.

Test system: L1210 leukemia ip in BDF1 mice, survival T/C
Test: NCI In Vivo Anticancer Drug Screen. Data for tumor model L1210 Leukemia (intraperitoneal) in B6D2F1 (BDF1) mice
Conditions: endpoint: mean survival time, higher = longer survival
Protocol: The antitumor activity of compounds was measured in mice bearing transplantable tumors. Survival or tumor size were measured and the results are expressed as the measurement made in the treated group (T) divided by the measurement made in the vehicle treated control group (C). The tumor model used in this assay is L1210 Leukemia (intraperitoneal) in B6D2F1 (BDF1) mice

[1] = dose: 100.0 mg/kg/injection, schedule: Q04DX003 (ip), vehicle: Klucel (hydroxypropylcellulose) (HPC)
[2] = dose: 200.0 mg/kg/injection, schedule: Q04DX003 (ip), vehicle: Klucel (hydroxypropylcellulose) (HPC)
[3] = dose: 400.0 mg/kg/injection, schedule: Q04DX003 (ip), vehicle: Klucel (hydroxypropylcellulose) (HPC)
[4] = dose: 100.0 mg/kg/injection, schedule: Q04DX002 (ip), vehicle: saline with Tween-80
[5] = dose: 200.0 mg/kg/injection, schedule: Q04DX002 (ip), vehicle: saline with Tween-80
[6] = dose: 400.0 mg/kg/injection, schedule: Q04DX002 (ip), vehicle: saline with Tween-80
[7] = dose: 100.0 mg/kg/injection, schedule: Q01DX009 (ip), vehicle: Klucel (hydroxypropylcellulose) (HPC)
[8] = dose: 200.0 mg/kg/injection, schedule: Q01DX009 (ip), vehicle: Klucel (hydroxypropylcellulose) (HPC)
[9] = dose: 400.0 mg/kg/injection, schedule: Q01DX009 (ip), vehicle: Klucel (hydroxypropylcellulose) (HPC)
[10] = dose: 100.0 mg/kg/injection, schedule: Q01DX001 (ip), vehicle: saline
[11] = dose: 200.0 mg/kg/injection, schedule: Q01DX001 (ip), vehicle: saline
[12] = dose: 400.0 mg/kg/injection, schedule: Q01DX001 (ip), vehicle: saline
[13] = dose: 100.0 mg/kg/injection, schedule: Q04DX003 (ip), vehicle: saline
[14] = dose: 200.0 mg/kg/injection, schedule: Q04DX003 (ip), vehicle: saline
[15] = dose: 400.0 mg/kg/injection, schedule: Q04DX003 (ip), vehicle: saline
[16] = dose: 100.0 mg/kg/injection, schedule: Q04DX003 (ip), vehicle: saline with Tween-80

Measured: T/C

COc1ccc(/C=C/C(C)=O)cc1OC
inactive: dose: 6.25 mg/kg/injection, schedule: Q01DX009 (ip), vehicle: saline 91 % of control | dose: 12.5 mg/kg/injection, schedule: Q01DX009 (ip), vehicle: saline 100 % of control | dose: 25.0 mg/kg/injection, schedule: Q01DX009 (ip), vehicle: saline 91 % of control | dose: 50.0 mg/kg/injection, schedule: Q01DX009 (ip), vehicle: saline 87 % of control | dose: 100.0 mg/kg/injection, schedule: Q01DX009 (ip), vehicle: saline 88 % of control | dose: 200.0 mg/kg/injection, schedule: Q01DX009 (ip), vehicle: saline 88 % of control

O=C1C2CCCCC1C(N1CCCC1)CC2 (stereo unspecified)
inactive: dose: 100.0 mg/kg/injection, schedule: Q01DX009 (sc), vehicle: olive oil, sesame oil, peanut oil 98 % of control | dose: 100.0 mg/kg/injection, schedule: Q04DX003 (sc), vehicle: olive oil, sesame oil, peanut oil 96 % of control | dose: 200.0 mg/kg/injection, schedule: Q01DX009 (sc), vehicle: olive oil, sesame oil, peanut oil 104 % of control | dose: 200.0 mg/kg/injection, schedule: Q04DX003 (sc), vehicle: olive oil, sesame oil, peanut oil 100 % of control | dose: 400.0 mg/kg/injection, schedule: Q04DX003 (sc), vehicle: olive oil, sesame oil, peanut oil 111 % of control

OCC1(CO)CCCCC1
inactive: [1] 105 % of control | [2] 109 % of control | [3] 105 % of control

CC1=CCCCC1O (stereo unspecified)
inactive: [4] 93 % of control | [5] 96 % of control | [6] 93 % of control

CC(C)=NOC(N)=O
inactive: dose: 50.0 mg/kg/injection, schedule: Q01DX Z (ip), vehicle: water 108 % of control | dose: 100.0 mg/kg/injection, schedule: Q01DX Z (ip), vehicle: water 100 % of control | dose: 200.0 mg/kg/injection, schedule: Q01DX Z (ip), vehicle: water 100 % of control | dose: 400.0 mg/kg/injection, schedule: Q01DX Z (ip), vehicle: water 100 % of control

O=C(Nc1ccc(F)c([N+](=O)[O-])c1)N(Cc1ccccc1)c1ccccc1
inactive: [7] 101 % of control | [8] 104 % of control | [9] 98 % of control

CCc1ccc(N=C(C)c2c(O)cc(C)oc2=O)cc1
inactive: [7] 96 % of control | [8] 100 % of control | [9] 96 % of control

[N-]=[N+]=NC1=C(c2ccccc2)C(=O)C(N=[N+]=[N-])=C(c2ccccc2)C1=O
inactive: [10] 88 % of control | [11] 95 % of control | [12] 90 % of control

Cc1ccc(C)c(CNC(=O)C2CCCCC2C(=O)O)c1 (stereo unspecified)
inactive: dose: 100.0 mg/kg/injection, schedule: Q01DX009 (ip), vehicle: saline with Tween-80 101 % of control | dose: 200.0 mg/kg/injection, schedule: Q01DX009 (ip), vehicle: saline with Tween-80 112 % of control | dose: 400.0 mg/kg/injection, schedule: Q01DX009 (ip), vehicle: saline with Tween-80 109 % of control

O=C(CCCC(=O)NNC(=O)Nc1ccccc1Cl)NNC(=O)Nc1ccccc1Cl
inactive: dose: 50.0 mg/kg/injection, schedule: Q01DX001 (ip), vehicle: saline 102 % of control | [10] 96 % of control | [11] 100 % of control | [12] 93 % of control

COC(=O)C1/C(=C/c2ccccc2)C(=O)c2ccccc21 (stereo unspecified)
inactive: [4] 87 % of control | [5] 87 % of control | [6] 94 % of control

C#CC(C)(C)OCC(CCl)OC(N)=O (stereo unspecified)
inactive: dose: 50.0 mg/kg/injection, schedule: Q04DX003 (ip), vehicle: saline 98 % of control | [13] 96 % of control | [14] 101 % of control | [15] 104 % of control

Nc1ncnc2c1nc(N)n2C1OC(CO)C(O)C1O (stereo unspecified)
inactive: [10] 115 % of control and 104 % of control | [11] 123 % of control and 104 % of control | [12] 98 % of control

Cc1ccc(C(C)NC2=NCCO2)c(C)c1 (stereo unspecified)
inactive: [16] 105 % of control

COC(=O)C(CCCCN=Cc1ccccc1O)N=Cc1ccccc1O.[Cu] (stereo unspecified)
inactive: dose: 6.25 mg/kg/injection, schedule: Q01DX009 (ip), vehicle: saline with Tween-80 96 % of control | dose: 12.5 mg/kg/injection, schedule: Q01DX009 (ip), vehicle: saline with Tween-80 93 % of control | dose: 25.0 mg/kg/injection, schedule: Q01DX009 (ip), vehicle: saline with Tween-80 96 % of control and 98 % of control | dose: 50.0 mg/kg/injection, schedule: Q01DX009 (ip), vehicle: saline with Tween-80 103 % of control | [16] 96 % of control

CC12CCCCC1C1=C(CCCC1)CC2 (stereo unspecified)
inactive: dose: 50.0 mg/kg/injection, schedule: Q01DX001 (ip), vehicle: carboxymethylcellulose (CMC) 97 % of control | dose: 100.0 mg/kg/injection, schedule: Q01DX001 (ip), vehicle: carboxymethylcellulose (CMC) 92 % of control | dose: 200.0 mg/kg/injection, schedule: Q01DX001 (ip), vehicle: carboxymethylcellulose (CMC) 94 % of control | dose: 400.0 mg/kg/injection, schedule: Q01DX001 (ip), vehicle: carboxymethylcellulose (CMC) 97 % of control

OC(CCl)CN1CC[N+]2(CC1)CC[N+]1(CCN(CC(O)CCl)CC1)CC2 (stereo unspecified)
inactive: dose: 37.5 mg/kg/injection, schedule: Q01DX009 (ip), vehicle: water 100 % of control | dose: 59.0 mg/kg/injection, schedule: Q01DX009 (ip), vehicle: water 105 % of control | dose: 75.0 mg/kg/injection, schedule: Q01DX009 (ip), vehicle: water 101 % of control | dose: 88.0 mg/kg/injection, schedule: Q01DX009 (ip), vehicle: water 104 % of control | dose: 132.0 mg/kg/injection, schedule: Q01DX009 (ip), vehicle: water 107 % of control | dose: 150.0 mg/kg/injection, schedule: Q01DX009 (ip), vehicle: water 114 % of control | dose: 200.0 mg/kg/injection, schedule: Q01DX009 (ip), vehicle: water 102 % of control | dose: 300.0 mg/kg/injection, schedule: Q01DX009 (ip), vehicle: water 93 % of control and 95 % of control

CCOc1ccc([N+](=O)[O-])cc1CN(CC)CC
inactive: dose: 5.0 mg/kg/injection, schedule: Q01DX009 (ip), vehicle: saline 97 % of control | dose: 9.5 mg/kg/injection, schedule: Q01DX001 (ip), vehicle: saline 109 % of control | dose: 10.0 mg/kg/injection, schedule: Q01DX009 (ip), vehicle: saline 95 % of control | dose: 10.0 mg/kg/injection, schedule: Q04DX003 (ip), vehicle: saline 97 % of control | dose: 19.0 mg/kg/injection, schedule: Q01DX001 (ip), vehicle: saline 106 % of control | dose: 20.0 mg/kg/injection, schedule: Q01DX009 (ip), vehicle: saline 89 % of control | dose: 20.0 mg/kg/injection, schedule: Q04DX003 (ip), vehicle: saline 102 % of control | dose: 38.0 mg/kg/injection, schedule: Q01DX001 (ip), vehicle: saline 98 % of control

CN(C)c1ccc(C(=O)Oc2ccc([N+](=O)[O-])cc2)cc1
inactive: [7] 90 % of control | [1] 95 % of control | [8] 101 % of control | [2] 98 % of control | [9] 102 % of control | [3] 96 % of control

O=[N+]([O-])c1ccc(N/N=C/c2cccnc2)cc1
inactive: dose: 100.0 mg/kg/injection, schedule: Q01DX001 (ip), vehicle: Klucel (hydroxypropylcellulose) (HPC) 96 % of control | [7] 92 % of control | dose: 200.0 mg/kg/injection, schedule: Q01DX001 (ip), vehicle: Klucel (hydroxypropylcellulose) (HPC) 95 % of control | [8] 90 % of control | dose: 400.0 mg/kg/injection, schedule: Q01DX001 (ip), vehicle: Klucel (hydroxypropylcellulose) (HPC) 88 % of control | [9] 101 % of control

Cc1cccc[n+]1Cc1cc(=O)[nH]c(=O)[nH]1
inactive: [13] 101 % of control | [14] 98 % of control | [15] 98 % of control

CC(C)N(C(=O)c1ccccc1Cl)c1ccccc1
inactive: [7] 92 % of control | [8] 103 % of control | [9] 103 % of control
